One assay addresses T1, Adenosine receptor A1 (Homo sapiens, UniProt P30542).
T1 sequence (P30542 whole entry): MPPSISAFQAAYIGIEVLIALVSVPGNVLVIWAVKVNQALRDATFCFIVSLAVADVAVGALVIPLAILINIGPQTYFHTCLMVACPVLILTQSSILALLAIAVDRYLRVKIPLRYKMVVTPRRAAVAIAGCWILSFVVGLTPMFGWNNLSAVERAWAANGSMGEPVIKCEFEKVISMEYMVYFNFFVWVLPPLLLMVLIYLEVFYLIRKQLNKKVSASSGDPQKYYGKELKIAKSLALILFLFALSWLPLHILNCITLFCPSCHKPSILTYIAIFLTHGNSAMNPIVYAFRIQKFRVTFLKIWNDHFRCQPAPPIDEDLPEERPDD

The target in assay [1] is T2, Muscarinic acetylcholine receptor M1 (Homo sapiens, UniProt P11229).
T2 sequence (P11229 whole entry): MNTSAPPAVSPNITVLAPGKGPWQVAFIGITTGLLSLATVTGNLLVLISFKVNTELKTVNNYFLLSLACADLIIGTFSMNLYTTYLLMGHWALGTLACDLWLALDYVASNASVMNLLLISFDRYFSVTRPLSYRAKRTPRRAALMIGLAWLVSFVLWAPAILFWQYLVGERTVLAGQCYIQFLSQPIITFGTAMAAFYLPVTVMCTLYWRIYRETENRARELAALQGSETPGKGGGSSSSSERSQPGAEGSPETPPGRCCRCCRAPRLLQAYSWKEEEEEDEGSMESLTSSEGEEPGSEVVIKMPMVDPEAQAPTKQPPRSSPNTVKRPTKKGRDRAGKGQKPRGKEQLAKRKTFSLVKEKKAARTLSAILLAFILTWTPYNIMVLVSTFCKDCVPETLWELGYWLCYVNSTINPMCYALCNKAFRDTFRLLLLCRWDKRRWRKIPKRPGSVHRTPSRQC

Assay [2] deals with Sodium-dependent serotonin transporter (Homo sapiens, UniProt P31645).
Assay [3] concerns the target T3, Alpha-1A adrenergic receptor (Homo sapiens, UniProt P35348).
T3 sequence (P35348 whole entry): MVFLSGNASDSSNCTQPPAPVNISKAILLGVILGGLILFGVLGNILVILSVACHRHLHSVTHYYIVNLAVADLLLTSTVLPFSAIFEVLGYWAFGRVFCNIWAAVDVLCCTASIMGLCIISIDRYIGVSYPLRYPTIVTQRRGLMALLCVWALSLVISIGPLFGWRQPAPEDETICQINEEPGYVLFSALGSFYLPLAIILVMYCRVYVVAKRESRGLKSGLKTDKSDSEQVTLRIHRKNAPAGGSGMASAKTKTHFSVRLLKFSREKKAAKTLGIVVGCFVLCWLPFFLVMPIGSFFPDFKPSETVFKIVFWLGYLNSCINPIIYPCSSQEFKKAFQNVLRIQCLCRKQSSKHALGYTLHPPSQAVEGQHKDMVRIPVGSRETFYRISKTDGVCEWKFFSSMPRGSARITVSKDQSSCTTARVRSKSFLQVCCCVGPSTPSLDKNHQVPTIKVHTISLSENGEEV
The class given is functional, cell-based.

Another assay concerns the target T4, Estrogen receptor (Homo sapiens, UniProt P03372).
T4 sequence (P03372 whole entry): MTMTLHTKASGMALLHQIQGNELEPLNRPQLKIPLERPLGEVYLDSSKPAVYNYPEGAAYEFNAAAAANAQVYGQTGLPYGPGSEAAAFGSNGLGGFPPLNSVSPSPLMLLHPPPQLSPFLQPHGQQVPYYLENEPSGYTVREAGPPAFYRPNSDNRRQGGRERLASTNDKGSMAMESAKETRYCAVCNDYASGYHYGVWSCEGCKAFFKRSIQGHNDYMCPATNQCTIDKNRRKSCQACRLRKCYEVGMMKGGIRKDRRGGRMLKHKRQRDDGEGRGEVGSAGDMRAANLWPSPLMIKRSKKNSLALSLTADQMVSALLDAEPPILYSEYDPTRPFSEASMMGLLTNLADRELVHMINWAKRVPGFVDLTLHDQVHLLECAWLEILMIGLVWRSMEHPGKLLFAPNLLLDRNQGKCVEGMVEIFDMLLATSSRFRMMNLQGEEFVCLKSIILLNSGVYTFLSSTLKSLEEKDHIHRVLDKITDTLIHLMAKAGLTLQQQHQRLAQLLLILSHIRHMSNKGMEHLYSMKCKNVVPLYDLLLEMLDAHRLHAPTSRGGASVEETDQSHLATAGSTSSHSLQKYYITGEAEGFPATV
The class given is functional.

Assay [4] deals with Type-2 angiotensin II receptor (Homo sapiens, UniProt P50052). The class given is functional.
Assay [5] addresses T5, Oxysterols receptor LXR-alpha (Homo sapiens, UniProt Q13133).
T5 sequence (Q13133 whole entry): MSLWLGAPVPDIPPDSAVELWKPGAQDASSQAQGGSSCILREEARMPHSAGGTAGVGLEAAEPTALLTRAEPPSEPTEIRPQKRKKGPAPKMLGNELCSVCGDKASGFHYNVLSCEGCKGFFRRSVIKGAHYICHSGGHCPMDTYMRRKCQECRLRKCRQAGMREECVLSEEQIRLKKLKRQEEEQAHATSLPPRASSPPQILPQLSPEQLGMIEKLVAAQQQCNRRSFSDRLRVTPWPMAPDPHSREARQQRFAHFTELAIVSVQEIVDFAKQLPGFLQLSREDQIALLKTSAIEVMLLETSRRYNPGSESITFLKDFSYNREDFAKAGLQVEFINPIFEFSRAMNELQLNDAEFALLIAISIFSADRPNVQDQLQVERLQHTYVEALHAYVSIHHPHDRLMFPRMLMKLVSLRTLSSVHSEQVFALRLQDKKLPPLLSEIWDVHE
The class given is functional.

In assay [6] the target is T5, Oxysterols receptor LXR-alpha. Format: functional. This is another data set of the same source.
For assay [7], the target named is T6, Retinoic acid receptor gamma (Homo sapiens, UniProt P13631).
T6 sequence (P13631 whole entry): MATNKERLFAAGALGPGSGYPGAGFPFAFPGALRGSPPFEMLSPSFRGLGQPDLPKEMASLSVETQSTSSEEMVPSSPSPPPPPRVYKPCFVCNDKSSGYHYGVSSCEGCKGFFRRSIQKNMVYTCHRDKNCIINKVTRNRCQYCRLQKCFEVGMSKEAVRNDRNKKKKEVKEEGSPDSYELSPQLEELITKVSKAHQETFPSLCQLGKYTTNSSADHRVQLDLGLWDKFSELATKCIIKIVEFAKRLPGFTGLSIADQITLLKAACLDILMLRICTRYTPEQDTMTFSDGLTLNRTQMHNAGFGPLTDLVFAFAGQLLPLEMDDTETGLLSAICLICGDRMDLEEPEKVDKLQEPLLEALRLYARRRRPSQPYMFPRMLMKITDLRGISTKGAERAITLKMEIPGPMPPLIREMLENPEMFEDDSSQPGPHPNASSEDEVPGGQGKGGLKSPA
Format: functional, cell-based.
Further: assay procedure not described here.

Chain of Sodium-dependent serotonin transporter (P31645 whole entry): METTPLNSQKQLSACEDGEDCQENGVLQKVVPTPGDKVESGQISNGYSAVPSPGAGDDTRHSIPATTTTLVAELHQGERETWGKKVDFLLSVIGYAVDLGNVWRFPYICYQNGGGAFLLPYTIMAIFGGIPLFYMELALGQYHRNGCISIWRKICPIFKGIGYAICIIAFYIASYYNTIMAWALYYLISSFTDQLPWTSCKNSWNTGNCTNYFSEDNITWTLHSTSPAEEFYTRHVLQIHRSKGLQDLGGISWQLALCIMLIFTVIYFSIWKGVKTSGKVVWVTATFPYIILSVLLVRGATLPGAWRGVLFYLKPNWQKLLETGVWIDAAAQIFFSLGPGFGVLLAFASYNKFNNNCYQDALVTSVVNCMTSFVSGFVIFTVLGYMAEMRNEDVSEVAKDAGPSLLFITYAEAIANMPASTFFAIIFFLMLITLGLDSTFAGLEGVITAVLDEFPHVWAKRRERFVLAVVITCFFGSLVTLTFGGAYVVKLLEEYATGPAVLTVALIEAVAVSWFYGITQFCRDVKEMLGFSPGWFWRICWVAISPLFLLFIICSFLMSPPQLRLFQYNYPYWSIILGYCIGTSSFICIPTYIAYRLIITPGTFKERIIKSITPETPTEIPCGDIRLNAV
Chain of Type-2 angiotensin II receptor (P50052 whole entry): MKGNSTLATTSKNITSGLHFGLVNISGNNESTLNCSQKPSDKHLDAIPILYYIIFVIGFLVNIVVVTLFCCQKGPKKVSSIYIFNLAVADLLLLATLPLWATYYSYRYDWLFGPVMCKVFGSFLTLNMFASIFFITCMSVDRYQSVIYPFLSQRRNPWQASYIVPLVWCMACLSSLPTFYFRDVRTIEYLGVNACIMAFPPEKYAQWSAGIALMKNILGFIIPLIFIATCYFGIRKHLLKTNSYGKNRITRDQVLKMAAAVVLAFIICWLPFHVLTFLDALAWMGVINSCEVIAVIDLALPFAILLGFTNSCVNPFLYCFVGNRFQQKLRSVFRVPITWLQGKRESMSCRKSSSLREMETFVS

What is called AC50 is the concentration at which the activity in the assay is half-maximal. With BIVALIRUDIN, the AC50 (on Adenosine receptor A1; in assay [1]; in assay [2]) was more than 30 µM in each case.

`Nc1nc2ccc(OC(F)(F)F)cc2s1` [RILUZOLE] registered an AC50 in [3] of more than 30 µM. In the case of `[H]/N=C(/N)c1ccc(NCc2nc3cc(C(=O)N(CCC(=O)O)c4ccccn4)ccc3n2C)cc1` [DABIGATRAN], on Estrogen receptor, the AC50 was more than 30 µM. Turning to `Cc1c(O)c(=O)ccn1C` [DEFERIPRONE], the AC50 in assay [4] was more than 100 µM. For `CC(C)c1c(C(=O)Nc2ccccc2)c(-c2ccccc2)c(-c2ccc(F)cc2)n1CC[C@@H](O)C[C@@H](O)CC(=O)O` [ATORVASTATIN], the AC50 in [5], in assay [6] and in assay [7] was more than 30 µM in each case.

Values taken from ChEMBL document CHEMBL5291721, “A preclinical secondary pharmacology resource illuminates target-adverse drug reaction associations of marketed drugs” (Nat Commun, 2023).
